Data on 21 compounds can be found in patent publication US20050032873A1, “3-Amino chroman and 2-amino tetralin derivatives” (Wyeth, priority 2003, published 2005).

Like-named read-outs stand apart in the source and are kept apart here.

For assay [1], the target named is T1, 5-HT1A receptor (Homo sapiens, UniProt P08908).
T1 sequence (P08908 1-422): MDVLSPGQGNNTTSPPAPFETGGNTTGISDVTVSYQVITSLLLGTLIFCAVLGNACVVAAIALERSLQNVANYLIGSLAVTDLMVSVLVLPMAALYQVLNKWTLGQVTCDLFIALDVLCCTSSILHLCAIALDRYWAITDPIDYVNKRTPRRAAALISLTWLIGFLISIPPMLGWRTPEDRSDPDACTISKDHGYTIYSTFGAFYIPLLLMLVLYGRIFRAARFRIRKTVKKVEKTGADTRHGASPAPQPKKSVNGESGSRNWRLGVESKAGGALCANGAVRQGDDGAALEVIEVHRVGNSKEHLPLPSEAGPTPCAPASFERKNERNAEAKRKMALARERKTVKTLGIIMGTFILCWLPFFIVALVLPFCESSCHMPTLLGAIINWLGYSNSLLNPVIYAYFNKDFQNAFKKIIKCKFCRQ
In words: 5-HT1A receptor affinity: displacement of [3H] 8-OH-DPAT. Type of assay: binding. Also noted: expressed in transfected cells. The following applies: for Ki: displacement of [3H] 8-OH-DPAT, CHO cells stably transfected with human 5-HT1A receptors, read-out: 5-HT1A Receptor Affinity Ki; for inhibition at 1 µM: read-out: 5-HT1A Receptor Affinity, % @ 1 μM. (Loss of bound radioactivity is the signal in a displacement assay; it reports binding, not function.)

The next assay deals with T2, serotonin transporter (Rattus norvegicus, UniProt P31652).
T2 construct: displace ^3H-paroxetine from male rat cortical membranes; from tissue; host or cells: male rat cortical membranes
In words: 5-HT transporter affinity: displacement of 3H-paroxetine from male rat cortical membranes. The format is binding. The following applies: displacement of 3H-paroxetine; male rat cortical membranes; read-out: 5-HT Transporter Affinity Ki.

Assay [2] addresses T1, 5-HT1A receptor. In words: cAMP accumulation assay, 5-HT1A function. The format is cell-based. The following applies: for Emax / 5-HT1A Function cAMP (Emax): in brackets after EC50 or IC50; for Emax: read-out: 5-HT1A Function cAMP (Emax); for EC50: cells marked EC50 (agonist).
Assay [3] concerns the target T3, cloned human 5-HT1A receptors (Homo sapiens, UniProt P08908).
T3 construct: expressed in transfected cells
T3 sequence (P08908 1-422): T1 sequence (P08908 1-422)
In words: 35S-GTPγS binding assay, 5-HT1A function. The format is biochemical. The following applies: for IC50: antagonist potency, reversal of 8-OH-DPAT, read-out: 5-HT1A Function GTPγS IC50. (GTPγS is a poorly hydrolysed GTP analogue; its binding reports G protein activation.)

Where [4] appears, read: maximum inhibitory effect, in brackets after IC50.
The mark [5] stands for this setting: maximum stimulatory effect, in brackets after EC50, read-out: 5-HT1A Function GTPγS (Emax).
The mark [6] stands for this setting: maximum inhibitory effect, in brackets after IC50, read-out: 5-HT1A Function GTPγS (Imax).

T2 sequence (P31652 whole entry): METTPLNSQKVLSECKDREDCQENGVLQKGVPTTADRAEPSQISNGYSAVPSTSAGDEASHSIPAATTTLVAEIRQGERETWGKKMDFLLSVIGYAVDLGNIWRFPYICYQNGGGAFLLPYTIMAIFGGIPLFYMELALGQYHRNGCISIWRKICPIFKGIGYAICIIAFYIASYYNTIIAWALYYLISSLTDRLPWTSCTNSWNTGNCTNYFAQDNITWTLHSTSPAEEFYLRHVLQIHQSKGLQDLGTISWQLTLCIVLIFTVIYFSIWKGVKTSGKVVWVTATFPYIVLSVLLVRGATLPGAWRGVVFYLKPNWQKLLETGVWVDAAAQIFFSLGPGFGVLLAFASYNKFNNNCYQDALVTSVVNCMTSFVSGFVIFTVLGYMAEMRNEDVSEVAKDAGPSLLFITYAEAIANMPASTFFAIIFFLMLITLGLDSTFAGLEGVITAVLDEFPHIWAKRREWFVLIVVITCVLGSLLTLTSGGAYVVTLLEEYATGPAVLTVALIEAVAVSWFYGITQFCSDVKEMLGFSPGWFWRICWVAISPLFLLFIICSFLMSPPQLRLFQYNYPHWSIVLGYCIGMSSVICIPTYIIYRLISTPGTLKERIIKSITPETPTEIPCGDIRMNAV

On to `COc1ccc2[nH]cc(CCCNC3COc4c(F)ccc(C(N)=O)c4C3)c2c1` (stereo not shown) [Compound 104, 8-fluoro-3-{[3-(5-methoxy-1H-indol-3-yl)propyl]amino}chromane-5-carboxamide], for which the inhibitory constant (Ki) (usually the dissociation constant of the complex between target and ligand, obtained from inhibition or displacement) at 5-HT1A receptor [1] was found to be 16.7 nM; at serotonin transporter, 4050 nM.

`NC(=O)c1ccc(F)c2c1CC(N(CCCc1c[nH]c3ccc(F)cc13)C1CCC1)CO2` (single isomer, unassigned; (+)) [Compound 4a, (+)-3-{cyclobutyl[3-(5-fluoro-1H-indol-3-yl)propyl]amino}-8-fluorochromane-5-carboxamide]: the Emax at 5-HT1A receptor [2] amounted to 0%. The Ki at serotonin transporter is 4.93 nM.

For `CNC(=O)c1ccc(F)c2c1CC(NCCc1c[nH]c3ccc(F)cc13)CO2` (stereo not shown) [Compound 84, 8-fluoro-3-{[2-(5-fluoro-1H-indol-3-yl)ethyl]amino}-N-methylchromane-5-carboxamide], the inhibition at 1 µM at 5-HT1A receptor [1] is 0%. Moreover, on serotonin transporter, the inhibition constant (Ki) stood at 83 nM.

Compound `NC(=O)c1ccc(F)c2c1CC(N(CCCc1c[nH]c3ccc(F)cc13)C1CCC1)CO2` (single isomer, unassigned; (-)) [Compound 4b, (−)-3-{cyclobutyl[3-(5-fluoro-1H-indol-3-yl)propyl]amino}-8-fluorochromane-5-carboxamide] registered a 5-HT1A Function cAMP (Emax) on 5-HT1A receptor [2] of 0%. Also, on serotonin transporter, the inhibition constant (Ki) was 1.53 nM.

On 5-HT1A receptor [2], `NC(=O)c1ccc(F)c2c1CC(N(CCCc1c[nH]c3ccc(F)cc13)CC1CC1)CO2` (single isomer, unassigned; (+)) [Compound 5b, (+)-3-{(cyclopropylmethyl)[3-(5-fluoro-1H-indol-3-yl)propyl]amino}-8-fluorochromane-5-carboxamide] came in with a 5-HT1A Function cAMP (Emax) of 69%. The Ki at serotonin transporter is 3.7 nM. This compound gave a 5-HT1A Function GTPγS (Imax) in assay [3] (setting [4]) of 82%. Further, the Emax in assay [3] (setting [5]) turned out to be 18%.

On to `NC(=O)c1ccc(F)c2c1CC(N(CCCc1c[nH]c3ccc(F)cc13)C1CCC1)CO2` (stereo not shown) [Compound 4, 3-{cyclobutyl[3-(5-fluoro-1H-indol-3-yl)propyl]amino}-8-fluorochromane-5-carboxamide], for which the Emax at 5-HT1A receptor [2] was determined as 0%. For the same compound, at serotonin transporter, the inhibition constant Ki worked out at 2.6 nM.

`CCCN(CCCCn1ccc2cccc(F)c21)C1COc2c(F)ccc(C(N)=O)c2C1` (stereo not shown) [Compound 190, 8-Fluoro-3-[[4-(7-fluoro-1H-indol-1-yl)butyl](propyl)amino]chromane-5-carboxamide]: on 5-HT1A receptor [1], the Ki stood at 16.6 nM. Moreover, on 5-HT1A receptor [2], the response was half-maximal at 321 nM (EC50) and the Emax was 59%. In addition, the IC50 (in general, the concentration that gives 50% inhibition) in assay [3] amounted to 3600 nM. The Emax in assay [3] (setting [6]) amounted to 84%.

On to `NC(=O)c1ccc(F)c2c1OCC(N(CCCCc1c[nH]c3ccc(F)cc13)C1CCC1)C2` (stereo not shown) [Compound 126, 3-{cyclobutyl[4-(5-fluoro-1H-indol-3-yl)butyl]amino}-5-fluorochromane-8-carboxamide], for which, on 5-HT1A receptor [1], the inhibition at 1 µM was determined as 0%. Moreover, on serotonin transporter, the Ki amounted to 17.1 nM.

For `NC(=O)c1ccc(F)c2c1CC(N(CCCc1c[nH]c3ccc(F)cc13)CC1CC1)CO2` (single isomer, unassigned; (-)) [Compound 5a, (−)-3-{(cyclopropylmethyl)[3-(5-fluoro-1H-indol-3-yl)propyl]amino}-8-fluorochromane-5-carboxamide], the 5-HT1A Function cAMP (Emax) at 5-HT1A receptor [2] was 0%. For the same compound, the Ki on serotonin transporter is 4.1 nM. For the same compound, in assay [3] (setting [6]), the Emax amounted to 100%.

With `CC(CCc1c[nH]c2c(F)cc(F)cc12)N(CC1CC1)C1COc2c(F)ccc(C(N)=O)c2C1` (single isomer, unassigned) [Compound 154b, 3-{(cyclopropylmethyl)[3-(5,7-difluoro-1H-indol-3-yl)-1-methylpropyl]amino}-8-fluorochromane-5-carboxamide], the Ki was determined as 88.2 nM at 5-HT1A receptor [1] and 217 nM at serotonin transporter.

For `NC(=O)c1ccc(F)c2c1CC(NCCCc1c[nH]c3c(Cl)cccc13)CO2` (stereo not shown) [Compound 109, 3-{[3-(7-chloro-1H-indol-3-yl)propyl]amino}-8-fluorochromane-5-carboxamide], the inhibition constant (Ki) at 5-HT1A receptor [1] was found to be 27.7 nM; on serotonin transporter it was 69 nM.

As for `NC(=O)c1ccc(F)c2c1CC(N(CCCc1c[nH]c3ccc(F)cc13)Cc1ccccc1)CO2` (stereo not shown) [Compound 74, 3-{benzyl[3-(5-fluoro-1H-indol-3-yl)propyl]amino}-8-fluorochromane-5-carboxamide], at 5-HT1A receptor [1], the inhibition at 1 µM worked out at 20%. Also, the inhibitory constant (Ki) on serotonin transporter was found to be 641 nM.

Turning to `COC(=O)c1ccc(F)c2c1CC(NCCCc1c[nH]c3ccc(F)cc13)CO2` (stereo not shown) [Compound 54, Methyl 8-fluoro-3-{[3-(5-fluoro-1H-indol-3-yl)propyl]amino}chromane-5-carboxylate], the 5-HT1A Function GTPγS (Emax) in assay [3] (maximum stimulatory effect, in brackets after EC50) came out at 85%.

In the case of `CCCN(C(C)CCc1c[nH]c2ccc(F)cc12)C1COc2c(F)ccc(C(N)=O)c2C1` (single isomer, unassigned) [Compound 12d, 8-fluoro-3-[[3-(5-fluoro-1H-indol-3-yl)-1-methylpropyl](propyl)amino]-3,4-dihydro-2H-chromene-5-carboxamide], the Ki at serotonin transporter was 152 nM. Moreover, the IC50 in assay [3] came to 6000 nM. This compound showed a 5-HT1A Function GTPγS (Imax) in assay [3] (setting [4]) of 13%.

For `COc1cccc2c1CC(N(CCCCc1c[nH]c3ccc(F)cc13)C1CCC1)CO2` (stereo not shown) [Compound 36, N-cyclobutyl-N-[4-(5-fluoro-1H-indol-3-yl)butyl]-N-(5-methoxy-3,4-dihydro-2H-chromen-3-yl)amine], the inhibition constant (Ki) at 5-HT1A receptor [1] was 11.7 nM. For the same compound, a half-maximal effect at 5-HT1A receptor [2] (EC50) was put at 12.3 nM. In addition, the Emax at 5-HT1A receptor [2] was 61%; in assay [3] (setting [6]), 56%. Further, the IC50 in assay [3] was found to be 668 nM.

Turning to `NC(=O)c1ccc(F)c2c1CC(NCCCc1c[nH]c3ccc(F)cc13)CO2` (single isomer, unassigned; (-)) [Compound 1b, (−)-8-fluoro-3-{[3-(5-fluoro-1H-indol-3-yl)propyl]amino}chromane-5-carboxamide], the inhibition at 1 µM at 5-HT1A receptor [1] was determined as 47%. In addition, on serotonin transporter, the Ki turned out to be 76 nM.

Consider `NC(=O)c1ccc(F)c2c1OCC(N(CCCc1c[nH]c3c(F)cc(F)cc13)C1CCC1)C2` (stereo not shown) [Compound 131, 3-{cyclobutyl[3-(5,7-difluoro-1H-indol-3-yl)propyl]amino}-5-fluorochromane-8-carboxamide], for which, on 5-HT1A receptor [1], the inhibition at 1 µM amounted to 49%. For the same compound, the Ki on serotonin transporter is 162 nM.

For the compound `CCCN(C(C)CCc1c[nH]c2ccc(C#N)cc12)C1COc2c(F)ccc(C(N)=O)c2C1` (single isomer, unassigned) [Compound 13d, 3-[[3-(5-cyano-1H-indol-3-yl)-1-methylpropyl](propyl)amino]-8-fluoro-3,4-dihydro-2H-chromene-5-carboxamide], the inhibition constant (Ki) on serotonin transporter amounted to 112 nM.

In the case of `NC(=O)c1ccc(F)c2c1OCC(N(CCCc1c[nH]c3ccc(F)cc13)C1CCC1)C2` (stereo not shown) [Compound 122, 3-{cyclobutyl[3-(5-fluoro-1H-indol-3-yl)propyl]amino}-5-fluorochromane-8-carboxamide], the inhibition at 1 µM on 5-HT1A receptor [1] worked out at 0%. Further, on serotonin transporter, the inhibition constant (Ki) was determined as 71 nM.

In the case of `NC(=O)c1ccc(F)c2c1CC(NCCCn1ccc3ccccc31)CO2` (stereo not shown) [Compound 184, 8-Fluoro-3-{[3-(1H-indol-1-yl)propyl]amino}chromane-5-carboxamide], the inhibition at 1 µM at 5-HT1A receptor [1] worked out at 46%. Besides, the Ki at serotonin transporter worked out at 611 nM.

For the compound `NC(=O)c1ccc(F)c2c1CC(N(CCCc1c[nH]c3ccc(F)cc13)CC1CC1)CO2` (stereo not shown) [Compound 5, 3-{(cyclopropylmethyl)[3-(5-fluoro-1H-indol-3-yl)propyl]amino}-8-fluorochromane-5-carboxamide], the values for the Emax (on 5-HT1A receptor [2]; in assay [3] (setting [6]); in assay [3] (setting [5])) were 0%, 88.2% and 28.4%, respectively. Moreover, the Ki at serotonin transporter is 3.6 nM.
